Entries after “also recorded” stand apart in the source; their conditions may differ.
Molecular target: M. ramosa APAH (Mycoplana ramosa, UniProt Q48935)
Assay: Fluorimetric APAH inhibition assay
Type: biochemical
Conditions: not given

Chain of M. ramosa APAH (Q48935 whole entry): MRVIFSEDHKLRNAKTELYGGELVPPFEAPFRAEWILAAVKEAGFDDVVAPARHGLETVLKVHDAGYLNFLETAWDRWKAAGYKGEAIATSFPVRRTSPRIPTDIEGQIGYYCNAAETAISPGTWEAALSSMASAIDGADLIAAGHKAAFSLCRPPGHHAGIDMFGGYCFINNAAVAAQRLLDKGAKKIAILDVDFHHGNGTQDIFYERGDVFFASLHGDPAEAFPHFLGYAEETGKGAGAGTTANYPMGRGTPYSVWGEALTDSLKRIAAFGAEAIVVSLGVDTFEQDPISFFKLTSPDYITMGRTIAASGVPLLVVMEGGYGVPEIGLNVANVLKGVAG

SMILES | IC50 [µM]
Cl.Cl.NCCCNCCCCCC(=O)C(F)(F)F [IV, 7-[(3-aminopropyl)amino]-1,1,1-trifluoroheptan-2-one dihydrochloride] | 38
CC(=O)SCC(=O)CCCCCNCCCN.Cl.Cl [V, 7-{[(3-aminopropyl)amino]-2-oxoheptyl} thioacetate dihydrochloride] | 4000

Same assay, conditions: qualitative range stated in text

SMILES | Inhibitory potency against APAH, IC50 range in words
Cl.Cl.NCCCNCCCCCC(=O)O [I, 6-[(3-aminopropyl)amino]hexanoic acid dihydrochloride] | millimolar range
CC(=O)CCCCCNCCCN.Cl.Cl [II, 7-[(3-aminopropyl)amino]heptan-2-one dihydrochloride] | mid-micromolar range
Cl.Cl.NCCCNCCCCCC(=O)NO [III, 6-[(3-aminopropyl)amino]-N-hydroxyhexanamide dihydrochloride] | nanomolar range; also recorded: nanomolar inhibitory potency
Cl.Cl.NCCCNCCCCCC(=O)C(F)(F)F [IV, 7-[(3-aminopropyl)amino]-1,1,1-trifluoroheptan-2-one dihydrochloride] | nanomolar range; also recorded: nanomolar inhibitory potency
CS(=O)(=O)CCCCCNCCCN.Cl.Cl [IX, N^1-[5-(methylsulfonyl)pentyl]propane-1,3-diamine dihydrochloride] | millimolar range
CC(=O)SCC(=O)CCCCCNCCCN.Cl.Cl [V, 7-{[(3-aminopropyl)amino]-2-oxoheptyl} thioacetate dihydrochloride] | mid-micromolar range
COCC(=O)CCCCCNCCCN.Cl.Cl [VI, 7-[(3-aminopropyl)amino]-1-methoxyheptan-2-one dihydrochloride] | mid-micromolar range
CC(=O)SCCCCCNCCCN.Cl.Cl [VII, S-{5-[(3-aminopropyl)amino]pentyl} thioacetate dihydrochloride] | millimolar range
Cl.Cl.NCCCNCCCCCS [VIII, 5-[(3-aminopropyl)amino]pentane-1-thiol dihydrochloride] | mid-micromolar range
Cl.Cl.NCCCNCCCCCB(O)O [X, 5-[(3-aminopropyl)amino]pentylboronic acid dihydrochloride] | mid-micromolar range
